# Assay results as given in patent US20250041312A1, “METHODS OF ADMINISTERING A MODULATOR OF HEMOGLOBIN” (Global Blood Therapeutics, Inc., priority 2021, published 2025).
# Like-named read-outs stand apart in the source and are kept apart here. Marks after values point to notes of the source that are not given here.
# How the values were obtained:
# Type in all cases: in vivo, human
# [1] = Single ascending dose (SAD) study in healthy volunteers: safety and tolerability (TEAEs)
# Experimental: To evaluate the safety and tolerability of single ascending doses of Compound I, 48 healthy volunteers (42 in the fasted state and 6 in the fed state) aged 18 to 55 years old were administered single ascending doses (50 mg to 2200 mg) of Compound I, while 16 healthy volunteers (14 in the fasted state and 2 in the fed state) aged 18 to 55 years old were administered placebo in a double blind, randomized, sequential manner.
# Primary endpoints were safety and tolerability; key secondary endpoints included PK and effect of food (high-fat meal).
# The few that were considered drug-related resolved with little to no intervention.
# [2] = MAD study in healthy volunteers: whole blood and plasma PK; details: for AUC(0-t): read-out: AUC0-24; for concentration at 14 day: read-out: Cmin
# Experimental: Another study was initiated in healthy volunteer aged 18-55 years old to evaluate the safety and tolerability of multiple ascending doses of Compound I. Four cohorts of 10 subjects each (n=7 Compound I, n=3 placebo) were evaluated in a sequential double-blind manner. To reach steady state levels each subject received a loading dose regimen for 3 or 4 days followed by once daily medication for up to 14 days. Primary endpoints were safety and tolerability; key secondary endpoints included PK and effect on electrocardiogram (ECG) parameters. Table 7 below provides an overview of the doses of Compound I or placebo that were used in each cohort.
# Preliminary whole blood PK parameters (geometric mean and % CV) and hemoglobin occupancy in healthy volunteers of the 15 mg, 25 mg, 50 mg, and 75 mg MAD cohorts are summarized in Table 10.
# [3] = SCD cohort PK after repeated dosing; details: for Cmax: 150 mg
# Experimental: After a washout period of at least 56 days (so that elimination PK of Compound I could be assessed), the patients were administered a loading dose of 300 mg per day of Compound I for one day followed by 200 mg per day of Compound I for one day, and then were administered a maintenance dose of 50 mg per day of Compound I for five weeks (“MAD-1 Cohort”). The same patients then received another loading dose of 500 mg per day of Compound I for one day followed by 400 mg per day of Compound I for one day, and then were administered another maintenance dose of 100 mg per day of Compound I for three weeks (“MAD-2 Cohort”). The total treatment period of the MAD-1 Cohort and MAD-2 Cohort was 8 weeks.
# Following the conclusion of the MAD-2 study and a washout period of about 8 months, the selected patients (n=4) were administered a loading dose of 300 mg BID for 4 days, followed thereafter by a maintenance dose of 150 mg QD (MAD-3 Cohort).
# The concentrations of Compound I in whole blood and plasma at week 6 in patients who participated in the MAD-3 cohort are shown in Table 19.
# [4] = HV single 50 mg, blinded, n=8 incl. placebo
# [5] = HV single 50 mg, unblinded, n=6
# [6] = HV single 100 mg, blinded, n=8 incl. placebo
# [7] = HV single 100 mg, unblinded, n=6
# [8] = HV single 200 mg fed (high-fat meal), blinded, n=8 incl. placebo
# [9] = HV single 200 mg fed (high-fat meal), unblinded, n=6
# [10] = HV single 200 mg, blinded, n=8 incl. placebo
# [11] = HV single 200 mg, unblinded, n=6
# [12] = HV single 400 mg, blinded, n=8 incl. placebo
# [13] = HV single 400 mg, unblinded, n=6
# [14] = HV single 800 mg, blinded, n=8 incl. placebo
# [15] = HV single 800 mg, unblinded, n=6
# [16] = HV single 1400 mg, blinded, n=8 incl. placebo
# [17] = HV single 1400 mg, unblinded, n=6
# [18] = HV single 2200 mg, blinded, n=8 incl. placebo
# [19] = HV single 2200 mg, unblinded, n=6
structure (smiles),measurement,setting,value
"O=Cc1c(O)cccc1OC[C@@H]1COCCN1C(=O)c1cccnc1CCO [Compound I, (S)-2-hydroxy-6-((4-(2-(2-hydroxyethyl)nicotinoyl)morpholin-3-yl)methoxy)benzaldehyde]",adverse events indicative of tissue hypoxia,[1]; HV SAD,no adverse events indicative of tissue hypoxia
same,grade of adverse events (CTCAE v5.0),"[1]; HV SAD, blinded study",mostly grade 1 or 2
same,Number of SAEs,[1]; [4],0
same,Number of TEAEs,[1]; [4],14
same,Number of TEAEs grade ≥ 3,[1]; [4],0
same,Number of TEAEs leading to study drug discontinuation,[1]; [4],0
same,Number of drug-related TEAEs,[1]; [4],2
same,Number of SAEs,[1]; [5],0
same,Number of TEAEs,[1]; [5],11
same,Number of TEAEs grade ≥ 3,[1]; [5],0
same,Number of TEAEs leading to study drug discontinuation,[1]; [5],0
same,Number of drug-related TEAEs,[1]; [5],1
same,Number of SAEs,[1]; [6],0
same,Number of TEAEs,[1]; [6],13
same,Number of TEAEs grade ≥ 3,[1]; [6],0
same,Number of TEAEs leading to study drug discontinuation,[1]; [6],0
same,Number of drug-related TEAEs,[1]; [6],1
same,Number of SAEs,[1]; [7],0
same,Number of TEAEs,[1]; [7],10
same,Number of TEAEs grade ≥ 3,[1]; [7],0
same,Number of TEAEs leading to study drug discontinuation,[1]; [7],0
same,Number of drug-related TEAEs,[1]; [7],1
same,Number of SAEs,[1]; [8],0
same,Number of TEAEs,[1]; [8],8
same,Number of TEAEs grade ≥ 3,[1]; [8],1
same,Number of TEAEs leading to study drug discontinuation,[1]; [8],0
same,Number of drug-related TEAEs,[1]; [8],0
same,Number of SAEs,[1]; [9],0
same,Number of TEAEs,[1]; [9],7
same,Number of TEAEs grade ≥ 3,[1]; [9],1
same,Number of TEAEs leading to study drug discontinuation,[1]; [9],0
same,Number of drug-related TEAEs,[1]; [9],0
same,Number of SAEs,[1]; [10],0
same,Number of TEAEs,[1]; [10],16
same,Number of TEAEs grade ≥ 3,[1]; [10],0
same,Number of TEAEs leading to study drug discontinuation,[1]; [10],0
same,Number of drug-related TEAEs,[1]; [10],0
same,Number of SAEs,[1]; [11],0
same,Number of TEAEs,[1]; [11],15
same,Number of TEAEs grade ≥ 3,[1]; [11],0
same,Number of TEAEs leading to study drug discontinuation,[1]; [11],0
same,Number of drug-related TEAEs,[1]; [11],0
same,Number of TEAEs,[1]; [12],23^
same,Number of TEAEs grade ≥ 3,[1]; [12],1^
same,Number of TEAEs leading to study drug discontinuation,[1]; [12],0^
same,Number of drug-related TEAEs,[1]; [12],1^
same,Number of SAEs,"[1]; HV single 400 mg, blinded, n=8 incl. placebo, SAE was a traumatic brain injury, not drug related",1^c
same,Number of TEAEs,[1]; [13],16^
same,Number of TEAEs grade ≥ 3,[1]; [13],1^
same,Number of TEAEs leading to study drug discontinuation,[1]; [13],0^
same,Number of drug-related TEAEs,[1]; [13],1^
same,Number of SAEs,"[1]; HV single 400 mg, unblinded, n=6, SAE was a traumatic brain injury, not drug related",1^c
same,Number of SAEs,[1]; [14],0
same,Number of TEAEs,[1]; [14],14
same,Number of TEAEs grade ≥ 3,[1]; [14],0
same,Number of TEAEs leading to study drug discontinuation,[1]; [14],0
same,Number of drug-related TEAEs,[1]; [14],3
same,Number of SAEs,[1]; [15],0
same,Number of TEAEs,[1]; [15],10
same,Number of TEAEs grade ≥ 3,[1]; [15],0
same,Number of TEAEs leading to study drug discontinuation,[1]; [15],0
same,Number of drug-related TEAEs,[1]; [15],3
same,Number of SAEs,[1]; [16],0
same,Number of TEAEs,[1]; [16],29
same,Number of TEAEs grade ≥ 3,[1]; [16],0
same,Number of TEAEs leading to study drug discontinuation,[1]; [16],0
same,Number of drug-related TEAEs,[1]; [16],4
same,Number of SAEs,[1]; [17],0
same,Number of TEAEs,[1]; [17],26
same,Number of TEAEs grade ≥ 3,[1]; [17],0
same,Number of TEAEs leading to study drug discontinuation,[1]; [17],0
same,Number of drug-related TEAEs,[1]; [17],4
same,Number of SAEs,[1]; [18],0
same,Number of TEAEs,[1]; [18],17
same,Number of TEAEs grade ≥ 3,[1]; [18],0
same,Number of TEAEs leading to study drug discontinuation,[1]; [18],0
same,Number of drug-related TEAEs,[1]; [18],4
same,Number of SAEs,[1]; [19],0
same,Number of TEAEs,[1]; [19],18
same,Number of TEAEs grade ≥ 3,[1]; [19],0
same,Number of TEAEs leading to study drug discontinuation,[1]; [19],0
same,Number of drug-related TEAEs,[1]; [19],4
same,B:P ratio (mean AUC0-24 blood:mean AUC0-24 plasma),"[2]; HV MAD Day 14, 75 mg QD maintenance",140
same,AUC(0-t),"[2]; human, HV MAD Day 14, 15 mg QD maintenance, whole blood",2840 µg·h/mL
same,concentration at 14 day,"[2]; human, HV MAD Day 14, 25 mg QD maintenance, whole blood",135 µg/mL
same,Tmax,"[2]; human, HV MAD Day 14, 50 mg QD maintenance, whole blood, median",3 h
same,AUC(0-t),"[2]; human, HV MAD Day 14, 50 mg QD maintenance, whole blood",5140 µg·h/mL
same,Cmax,"[2]; human, HV MAD Day 14, 75 mg QD maintenance (loading 500/500/500/400 mg), whole blood",308 µg/mL
same,concentration at 14 day,"[2]; human, HV MAD Day 14, 75 mg QD maintenance, whole blood",297 µg/mL
same,time to steady-state concentrations with model-selected first doses,"[3]; SCD, loading doses followed by 50 mg and 100 mg second doses (FIG. 15)",≤ 1 week
same,half-life,"[3]; human, in vivo, SCD, after the last dose (MAD-2), assessed over about 15 weeks, read-out: elimination t1/2 (converted)",~240 h
same,Cmax,"[3]; human, plasma, MAD-3 (150 mg QD) week 6, SCD patient 0001, read-out: Plasma (Cmax) Concentration",6.98 µg/mL
same,Cmax,"[3]; human, plasma, MAD-3 (150 mg QD) week 6, SCD patient 0003 (did not adhere to regimen), read-out: Plasma (Cmax) Concentration",1.61 µg/mL
same,Cmax,"[3]; human, plasma, MAD-3 (150 mg QD) week 6, SCD patient 0004, read-out: Plasma (Cmax) Concentration",3.83 µg/mL
same,Cmax,"[3]; human, plasma, MAD-3 (150 mg QD) week 6, SCD patient 0005, read-out: Plasma (Cmax) Concentration",7.61 µg/mL
same,Cmax,"[3]; human, whole blood, MAD-3 (150 mg QD) week 6, SCD patient 0001, read-out: Whole Blood (Cmax) Concentration",322 µg/mL
same,Cmax,"[3]; human, whole blood, MAD-3 (150 mg QD) week 6, SCD patient 0003 (did not adhere to regimen), read-out: Whole Blood (Cmax) Concentration",36.7 µg/mL
same,Cmax,"[3]; human, whole blood, MAD-3 (150 mg QD) week 6, SCD patient 0004, read-out: Whole Blood (Cmax) Concentration",259 µg/mL
same,Cmax,"[3]; human, whole blood, MAD-3 (150 mg QD) week 6, SCD patient 0005, read-out: Whole Blood (Cmax) Concentration",308 µg/mL
